In PMC4355590, “A Kinetic Study of the Main Guaco Metabolites Using Syrup Formulation and the Identification of an Alternative Route of Coumarin Metabolism in Humans” (PLoS ONE, 2015):
In brackets after ≈: the same amount, converted by molar mass. Like-named read-outs stand apart in the source and are kept apart here.

Columns and labels:
[1] = tested on: allergic airway inflammation; set-up: method as in PMID 19289114; details: mice, 60 mg/kg; cited from earlier work
[2] = Initial screening of bioavailability: 60 mL of guaco syrup orally; assay type: in vivo, human; details: 60 mL guaco syrup (17.6 mg COU, 1.1 mg OCA, 8.9 mg KAU), up to 600 min
Procedure: All the volunteers fasted for 8 h prior to the administration of guaco syrup and blood collection. […] The anticoagulant used was tetrasodium edetate. […] The pharmacokinetic analysis was performed using a non-compartmental model, considering an extravascular administration route and using WinNonlin Professional software, version 5.3. The relationships among the areas under the curves (r areas = AUC0-t/AUC0-inf), were used to confirm the suitability of the experimental design.

[3] = Second screening: 60 mL of guaco syrup spiked with 100, 500, 1000 or 1500 mg of COU; assay type: in vivo, human
Procedure: All the volunteers fasted for 8 h prior to the administration of guaco syrup and blood collection. Blood samples (3.0 mL) were collected (using flexible catheter 18–20G) before the syrup administration (zero min) and at fifteen time points after the syrup administration (10, 20, 30, 45, 60, 75, 90, 120, 150, 180, 240, 360, 480, 540 and 600 min). The anticoagulant used was tetrasodium edetate. All the samples were immediately centrifuged at 4000 rpm (5.0 min, room temperature), and the plasma was aliquoted and frozen at -40°C until analysis. The pharmacokinetic analysis was performed using a non-compartmental model, considering an extravascular administration route and using WinNonlin Professional software, version 5.3. The relationships among the areas under the curves (r areas = AUC0-t/AUC0-inf), were used to confirm the suitability of the experimental design. Values greater than 0.8 indicated an appropriate experimental design.

guinea pig tracheas = tested on: guinea pig tracheas; set-up: method as in PMID 16084046; details: cited from earlier work
histamine inhalation = tested on: histamine inhalation; set-up: method as in PMID 16084046; details: guinea pigs; cited from earlier work
[4] = set-up: method as in PMID 598421; details: cited from earlier work

SMILES	attenuation of allergic airway inflammation [1]	plasma levels after guaco syrup without spiking [2]	time of peak absorption after syrup administration ([3]; all four volunteers, 100, 500, 1000 and 1500 mg COU) [min]	Tmax ([3]; both sexes, human, plasma, oral, read-out: time of peak concentration in plasma) [h]	concentration at 10 min ([3]; human, plasma, oral, 100 mg dosage, 10 min after syrup administration) [ng/mL]	EC50, relaxing effect (guinea pig tracheas; guinea pig tracheas pre-contracted with carbachol) [µg/mL]	EC50, relaxing effect (guinea pig tracheas; guinea pig tracheas pre-contracted with histamine) [µg/mL]	AD50 (adequate dose protecting 50% of the tested animals) (histamine inhalation) [mg/kg]	bioavailability [4] [%]
O=c1ccc2ccc(O)cc2o1 [7-HCOU, 7-hydroxycoumarin]	significant attenuation	did not provide sufficient levels							
O=c1ccc2ccccc2o1 [COU, 1,2 benzopyrone]		did not provide sufficient levels	10	0.75 to 2	22.1	33.4 (≈ 229 µM)	35.0 (≈ 239 µM)	75	3.4
O=C(O)/C=C/c1ccccc1O [OCA, o-coumaric acid]		did not provide sufficient levels							
